According to US4621101A, “Pharmaceutical compositions with antianginal activity” (Egis Gyogyszergyar, priority 1984, dated 1986):
Like-named read-outs stand apart in the source and are kept apart here.

What was measured:
[1] = Antianginal effect in rats after intravenous administration, method of Nieschulz, Popendiker and Hofmann; assay type: in vivo; conditions: Rattus norvegicus
[2] = Acute intravenous toxicity (LD50) and therapeutic index, Table II; conditions: in vivo; for selectivity ratio: from LD50 and ED50, iv.; for LD50: iv.

CC(Cc1ccccc1)NCCC(c1ccccc1)c1ccccc1 (stereo not drawn) [Prenylamine, N-3,3-di-phenylpropyl-1-methylphenyl-ethylamine, reference compound]
ED50 [1]: 6.5 mg/kg | selectivity ratio [2]: 1.77 | LD50 [2]: 11.5 mg/kg

CN(C)CCO/N=C1\CCCCCC1Cc1ccccc1 (stereo not drawn) [compound D, 2-benzyl-1-[(E)-(2-dimethylamino-ethoxyimino)]-cycloheptane]
ED50 ([1]; read-out: ED50): 0.52 mg/kg | selectivity ratio [2]: 76.9 | LD50 [2]: 40 mg/kg

CC(C)N(CCCO/N=C1\CCCC\C1=C/c1ccc(Cl)cc1)C(C)C [compound F, 2-[(E)-(4-chlorophenyl)-methylene]-1-[(E)-(3-diisopropylamino)-propyloxyimino]-cyclohexane]
ED50 ([1]; read-out: ED50): 0.35 mg/kg | selectivity ratio [2]: 120 | LD50 [2]: 42 mg/kg

CC(C)N(CCCO/N=C1\CCCC\C1=C/c1ccccc1)C(C)C [compound G, 2-[(E)-phenylmethylene]-1-[(E)-(3-diisopropylaminopropyloxyimino)]-cyclohexane]
ED50 ([1]; read-out: ED50): 0.38 mg/kg | selectivity ratio [2]: 32.9 | LD50 [2]: 12.5 mg/kg
